Measurements: patent publication US8378117B2 (priority 2005, dated 2013)

Key:
CB1 receptor [1] = target: T1, CB1 receptor (Homo sapiens, UniProt P21554); test: Modified functional cell-based assay (Beta-Glo luminescence), CB1 receptor; settings: CB1 EC50 (Receptor Functional Activity), one sample per compound, Cpd 237 n=3
T1 construct: expressed in transfected cells
Protocol: (§1) Additional functional activity studies were performed with minor modifications. Beta galactosidase activity was quantified using the luminescent Beta-Glo Assay System (Promega Corp. Madison, Wis.) and an Orion Microplate Luminometer (Berthold Detection Systems, Oak Ridge, Tenn.). The EC50 values were calculated using GraphPad Prism and a four parameter logistic equation.
(§2) The functional activity EC50 value for compounds tested (shown in Table 8) were obtained from studies in which varying compound concentrations were used. With the exception of Cpd 237 (n=3), one sample for each compound was tested.

CB2 receptor [2] = target: T2, CB2 receptor (Homo sapiens, UniProt P34972); test: Modified functional cell-based assay (Beta-Glo luminescence), CB2 receptor; settings: CB2 EC50 (Receptor Functional Activity), one sample per compound, Cpd 237 n=3
T2 construct: expressed in transfected cells
T2 sequence (P34972 whole entry): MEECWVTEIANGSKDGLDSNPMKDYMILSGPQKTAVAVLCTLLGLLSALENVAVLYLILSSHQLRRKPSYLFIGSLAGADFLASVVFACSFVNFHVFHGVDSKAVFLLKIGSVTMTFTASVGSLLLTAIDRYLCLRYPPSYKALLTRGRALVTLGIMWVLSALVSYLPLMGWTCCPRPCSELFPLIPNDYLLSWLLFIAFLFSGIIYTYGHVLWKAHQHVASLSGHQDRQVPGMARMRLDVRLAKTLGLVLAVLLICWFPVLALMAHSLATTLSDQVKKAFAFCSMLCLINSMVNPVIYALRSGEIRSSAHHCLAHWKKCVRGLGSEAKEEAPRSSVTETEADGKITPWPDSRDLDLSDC
Protocol: as §1, §2

CB2 receptor [3] = target: T2, CB2 receptor; test: Binding assay for CB2 agonists or inverse agonists (SK-N-MC membranes, [3H]-CP-55,940)
Method in brief: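 Membranes from SK-N-MC cells stably expressing human CB2 were incubated with radioligand and test compounds for 90 min at 30 °C in Tris-HCl buffer, pH 7.5, with MgCl2, EDTA and fatty-acid-free BSA. Filter-bound radioactivity was counted; IC50 was derived by linear regression of percent inhibition.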

CB1 receptor [4] = target: T1, CB1 receptor; test: Binding assay for CB1 agonists or inverse agonists (SK-N-MC membranes, [3H]-CP-55,940)
Method in brief: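 Membranes from SK-N-MC cells stably expressing human CB1 incubated with compound and [3H]-CP-55,940 ([…]) for 90 min at 30° C in Tris-HCl pH 7.5, MgCl2, EDTA, fatty-acid-free BSA. Non-specific binding defined with 10 uM WIN 55,212; filtration, scintillation count; IC50 by linear regression.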

CB1 receptor [5] = target: T1, CB1 receptor; test: Modified binding assay, CB1 receptor in CHO cells, [3H]CP 55940; settings: [3H]CP 55940 0.5 nM, 120 minutes at 37° C.
Protocol: (§3) Additional receptor binding studies were performed with minor modifications as detailed below.
(§4) The human CB1 and CB2 receptors were stably expressed in CHO cells as described in Rinaldi-Carmona, M., Calandra, B., Shire, D., Bouaboula, M., Oustric, D., Barth, F., Casellas, P., Ferrara, P. and Le Fur, G. (1996) J. PharmacoL Exp. Ther., 278: 871-878 and Munro, S., Thomas, K. L. and Abu-Shaar, M. (1993) Nature, 365: 61-65, respectively. [^3H]CP 55940 (0.5 nM) was used as the radioligand for the CB1 receptor binding assay. [^3H]WIN 55212 (0.8 nM) was used as the radioligand for the CB2 receptor binding assay. Incubation was carried out for 120 minutes at 37° C.
(§5) The specific ligand binding to the receptors is defined as the difference between the total binding and the nonspecific binding determined in the presence of an excess of unlabelled ligand. The results are expressed as a percent of control specific binding ((measured specific binding/control specific binding)×100) obtained in the presence of the test compounds.
(§6) The IC50 values (concentration causing a half-maximal inhibition of control specific binding) were determined by non-linear regression analysis of the competition curves generated with mean replicate values using Hill equation curve fitting (where Y=specific binding, D=minimum specific binding, A=maximum specific binding, C=compound concentration, C50=IC50 and nH=slope factor): (Y=D+[(A−D)/(1+(C/C50)^nH)] CB1 and CB2 Receptor Binding Results
(§7) For compounds tested, an IC50 binding value was obtained from percent inhibition studies in which various test concentrations were used.

CB2 receptor [6] = target: T2, CB2 receptor; test: Modified binding assay, CB2 receptor in CHO cells, [3H]WIN 55212; settings: [3H]WIN 55212 0.8 nM, 120 minutes at 37° C.
Protocol: as §3, §4, §5, §6, §7

Male CD-1 mice [7] = test: Postoperative inflammatory ileus, microscopic myeloperoxidase histological examination; assay type: in vivo; settings: Surgical Manipulation, dose 1 mg/kg, 24 hr post-laparotomy, mean ± SE
Protocol: (§8) Male CD-1 mice were anesthetized by inhaled isoflurane and prepared for surgery. The abdomen was shaved of hair and treated with antiseptic solution. The animal was then covered with a surgical drape, leaving the abdomen exposed. A mid-line laparotomy was performed, and the entire small intestine was exteriorized onto the sterile drape. Using two moistened, sterile, cotton-tipped applicators, the small intestine was then gently compressed along its length from the ligament of Treitz to the ileo-cecal junction. The small intestine was then returned to the abdominal cavity and the incision closed by two layers of sutures.
(§9) Age-matched mice were randomly assigned to groups (6 animals per group) and injected intraperitoneally (i.p.) with “vehicle” (a mixture of 5% ethanol/5% Tween80/90% of 5% dextran in water w/v) containing various doses of a test compound 1 hr prior to laparotomy. The second group was injected intraperitoneally with vehicle. The third group was administered intragastrically (1 mg/kg) a mixture (1 mg/mL) of dexamethasone in 20% hydroxypropyl methyl dextran in water, once per day for two days prior to surgery and 5 hrs post-laparotomy. The fourth group received no intervention and served as naïve controls.
Microscopic histological examination was performed on harvested tissues 24 hr post-laparotomy. […] Hanker-Yates reagent (Polysciences Inc.) forms an insoluble, blue-black polymer in the presence of hydrogen peroxide and peroxidase enzyme activity. Segments of mid small bowel were collected from the centrifuge tubes described in the previous section. Whole mounts of the muscle layer were prepared by opening the tube of bowel along the mesenteric border and pinning the tissue flat in a Sylgard™ lined Petri dish with the mucosal surface facing upward. The tissue was stretched to 1.5 times its length and 2.5 times its width, and the mucosa removed by fine dissection. The remaining muscularis whole mounts were then fixed with 100% ethanol for 45 min, washed 3 times with PBS, and incubated for 20 min in PBS containing 0.1% hydrogen peroxide and 1 mg/ml Hanker-Yates reagent (Polysciences, Inc). The reagent is polymerized in the presence of hydrogen peroxide and peroxidase activity to form a blue-black deposit. Following a second wash with PBS, the whole mounts were mounted on glass slides, cover-slipped, and viewed on an optical microscope. Myeloperoxidase containing leukocytes were counted in 6 to 8 adjacent 200× optical fields, and the mean cell counts were calculated and recorded.
The presence of myeloperoxidase (MPO) positive immune cells in the intestinal muscularis is rare in normal animals.

Male CD-1 mice [8] = test: Postoperative inflammatory ileus, upper gastrointestinal transit (FITC-dextran, Geometric Center); assay type: in vivo; settings: Surgical Manipulation, dose 1 mg/kg, 24 hr post-laparotomy, mean ± SE; scale 1 to 15
Protocol: as §8, §9
Upper gastrointestinal transit was measured 24 hr post-laparotomy. Mice were fed a test meal consisting of 150 μL of FITC-dextran solution (5 mg/mL of 70,000 molecular weight dextran conjugated to fluorescein-isothiocyanate in 0.5% hydroxypropyl methylcellulose/deionized water) administered intragastrically by an 18 gauge feeding tube. Following oral administration of the FITC-dextran test meal, animals were returned to their home cages. Following a 45 min test period, mice were euthanized by isoflurane overdose and exsanguination. The entire gastrointestinal tract from the lower esophageal sphincter to the terminal colon was removed. The bowel segments were opened along the mesenteric border. The tissue and luminal contents of the stomach, 10 equal segments of small intestine, the cecum, and 3 equal segments of colon were placed in individual Eppendorf tubes containing 1 ml of PBS. The tissue was vigorously mixed on a tabletop vortex, and solid materials were pelletized by centrifugation. Aliquots of the cleared supernatant were read in duplicate on a 96-well fluorescence plate reader to quantify the magnitude of the fluorescent signal in each segment of bowel.
These values were used to calculate the Geometric Center (REF), which is defined as the weighted average distribution of the fluorescent signal along the gastrointestinal tract: GC=Σ(% of total fluorescent signal per segment×segment number)/100,
Higher GC values represent faster rates of transit on scale of 1 to 15.
Surgical manipulation of the small bowel leads to a significant delay in gastrointestinal transit, going from a Geometric Center of 8.4 in normal mice to 3.3 in vehicle treated animals.

[9] = test concentration 0.2 μM (footnote 2), 0.2 µM

T1 sequence (P21554 whole entry): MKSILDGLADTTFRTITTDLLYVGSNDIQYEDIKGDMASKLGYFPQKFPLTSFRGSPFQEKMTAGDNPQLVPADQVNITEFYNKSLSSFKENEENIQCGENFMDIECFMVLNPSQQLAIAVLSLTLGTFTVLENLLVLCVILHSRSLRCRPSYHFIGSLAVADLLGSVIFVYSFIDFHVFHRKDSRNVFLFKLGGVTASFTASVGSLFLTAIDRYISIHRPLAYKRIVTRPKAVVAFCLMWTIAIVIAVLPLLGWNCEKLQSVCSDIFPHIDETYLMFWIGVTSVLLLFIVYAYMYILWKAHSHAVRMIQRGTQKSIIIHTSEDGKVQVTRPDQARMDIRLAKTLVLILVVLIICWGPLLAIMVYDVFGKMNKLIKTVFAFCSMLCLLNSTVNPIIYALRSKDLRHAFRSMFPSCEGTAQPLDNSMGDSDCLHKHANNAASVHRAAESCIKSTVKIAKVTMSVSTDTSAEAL

| SMILES | EC50 (CB1 receptor [1]) | EC50 (CB2 receptor [2]) | CB2 receptor binding percent inhibition (CB2 receptor [3]; [9]) | CB1 receptor binding percent inhibition (CB1 receptor [4]; [9]) | IC50 (CB1 receptor [5]) | IC50 (CB2 receptor [6]) | inhibition at 0.2 µM (CB2 receptor [3]; read-out: CB2 receptor binding percent inhibition, test concentration 0.2 μM (footnote 2)) | inhibition at 0.2 µM (CB1 receptor [4]; read-out: CB1 receptor binding percent inhibition, test concentration 0.2 μM (footnote 2)) | MPO-Positive Cells (Per 200× Optical Field) (Male CD-1 mice [7]) | Geometric Center (upper gastrointestinal transit) (Male CD-1 mice [8]) |
| --- | --- | --- | --- | --- | --- | --- | --- | --- | --- | --- |
| C[C@H](NS(=O)(=O)/C=C/c1n[nH]c2c1CCCCC2Cc1cccc(F)c1)c1ccccc1 (single isomer, unassigned) [Cpd 233, (2E)-2-[(8S*)-8-(3-fluoro-benzyl)-1,4,5,6,7,8-hexahydro-cycloheptapyrazol-3-yl]-ethenesulfonic acid [(1S)-1-phenyl-ethyl]-amide] | ~4400 nM | ~1300 nM | ^(2)20% | ^(2)0% | – | – | – | – | – | – |
| O=C(N[C@H](CO)c1ccccc1)c1n[nH]c2c1CCCCC2Cc1cccc(Cl)c1 (stereo partly drawn) [Cpd 164, 8-(3-chloro-benzyl)-1,4,5,6,7,8-hexahydro-cycloheptapyrazole-3-carboxylic acid [(1S)-2-hydroxy-1-phenyl-ethyl]-amide] | > 1000 nM | 25 nM | – | – | 870 nM | 230 nM | 94% | 26% | – | – |
| C[C@@H]1C[C@H]2[C@@H]3CCC4=CC(=O)C=C[C@]4(C)[C@@]3(F)[C@@H](O)C[C@]2(C)[C@@]1(O)C(=O)CO [dexamethasone, reference compound] | – | – | – | – | – | – | – | – | 29.8 ± 3.9 | 6.0 ± 0.14 |
